Columns and labels:
[1] = target: T1, human B1R receptor (hB1R) (Homo sapiens, UniProt P46663); assay: FLIPR Ca2+ assay on hB1R-transfected CHO K1 cells, antagonistic action; assay type: cell-based; details: agonist Lys-Des-Arg9-bradykinin 0.5 nM, % of maximum achievable inhibition; for inhibition at 10 µM: CHO-K1, 10 μM test substance, read-out: hB1R [10 μM] % inhibition
T1 construct: host or cells: CHO K1 cells
T1 sequence (P46663 1-353): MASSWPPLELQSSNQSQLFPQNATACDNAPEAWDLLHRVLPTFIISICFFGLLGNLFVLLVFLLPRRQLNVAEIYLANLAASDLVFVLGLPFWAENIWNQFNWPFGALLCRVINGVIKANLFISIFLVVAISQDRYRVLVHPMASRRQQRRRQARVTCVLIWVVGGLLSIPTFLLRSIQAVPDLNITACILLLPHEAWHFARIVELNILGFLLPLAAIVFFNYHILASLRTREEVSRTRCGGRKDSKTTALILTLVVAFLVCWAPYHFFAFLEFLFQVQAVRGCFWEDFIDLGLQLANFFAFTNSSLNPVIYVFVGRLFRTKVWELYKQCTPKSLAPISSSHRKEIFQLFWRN

[2] = target: T2, B1R receptor of the rat (rB1R) (Rattus norvegicus, UniProt P97583); assay: FLIPR Ca2+ assay on rB1R-transfected CHO K1 cells, antagonistic action; assay type: cell-based; details: agonist Des-Arg9-bradykinin 100 nM, % of maximum achievable inhibition; for inhibition at 10 µM: CHO-K1, 10 μM test substance, read-out: rB1R [10 μM] % inhibition
T2 construct: host or cells: CHO K1 cells
T2 sequence (P97583 1-337): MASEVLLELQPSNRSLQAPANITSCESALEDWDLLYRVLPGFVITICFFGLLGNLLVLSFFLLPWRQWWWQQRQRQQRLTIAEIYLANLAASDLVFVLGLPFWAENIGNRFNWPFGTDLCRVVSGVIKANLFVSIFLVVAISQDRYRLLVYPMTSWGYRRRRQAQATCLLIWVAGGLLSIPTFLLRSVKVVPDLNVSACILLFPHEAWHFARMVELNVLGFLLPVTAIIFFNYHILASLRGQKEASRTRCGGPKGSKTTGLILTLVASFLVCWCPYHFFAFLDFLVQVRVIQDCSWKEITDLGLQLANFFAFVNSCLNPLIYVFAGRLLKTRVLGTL

CN(CCCC1CCC(c2ccccc2)(N2CCCC2)CC1)C(=O)CC1CCCCN1S(=O)(=O)c1cccc(C(F)(F)F)c1 (centres unmarked) [Compound 37, N-methyl-N-(3-(4-phenyl-4-(pyrrolidin-1-yl)cyclohexyl)propyl)-2-(1-(3-(trifluoromethyl)phenylsulfonyl)piperidin-2-yl)acetamide]
inhibition at 10 µM [1]: 103% | inhibition at 10 µM [2]: 101%

CN(CC1CCC(CCc2ccccc2)(N2CCCC2)CC1)C(=O)CC1CCCCN1S(=O)(=O)c1cccc(C(F)(F)F)c1 (centres unmarked) [Compound 38, N-methyl-N-((4-phenethyl-4-(pyrrolidin-1-yl)cyclohexyl)methyl)-2-(1-(3-(trifluoromethyl)phenylsulfonyl)piperidin-2-yl)acetamide]
inhibition at 10 µM [1]: 98% | inhibition at 10 µM [2]: 101%

COc1cc(C)c(S(=O)(=O)N(C)CCOCC(=O)N(C)CCC2CCC(Cc3ccccc3)(N3CCCC3)CC2)c(C)c1 (centres unmarked) [Compound 39, N-(2-(4-benzyl-4-(pyrrolidin-1-yl)cyclohexyl)ethyl)-2-(2-(4-methoxy-N,2,6-trimethylphenylsulfonamido)ethoxy)-N-methylacetamide]
inhibition at 10 µM [1]: 105% | inhibition at 10 µM [2]: 101%

CN(CCC1CCC(c2ccccc2)(N2CCCC2)CC1)C(=O)CC(NS(=O)(=O)c1ccc2ccccc2c1)c1ccccc1 (centres unmarked) [Compound 40, N-methyl-3-(naphthalene-2-sulfonamido)-3-phenyl-N-(2-(4-phenyl-4-(pyrrolidin-1-yl)cyclohexyl)ethyl)propanamide]
inhibition at 10 µM [1]: 103% | inhibition at 10 µM [2]: 101%

COc1cc(C)c(S(=O)(=O)N(C)CCOCC(=O)N2CCC(c3ccccc3)(N3CCN(C)CC3)CC2)c(C)c1 [Compound 41, 4-methoxy-N,2,6-trimethyl-N-(2-(2-(4-(4-methylpiperazin-1-yl)-4-phenylpiperidin-1-yl)-2-oxoethoxy)ethyl)benzenesulfonamide]
inhibition at 10 µM [1]: 103% | inhibition at 10 µM [2]: 101%

COc1cc(C)c(S(=O)(=O)N(C)CCOCC(=O)N2CCC(c3ccc(F)cc3)(N3CCN(C)CC3)CC2)c(C)c1 [Compound 42, N-(2-(2-(4-(4-fluorophenyl)-4-(4-methylpiperazin-1-yl)piperidin-1-yl)-2-oxoethoxy)ethyl)-4-methoxy-N,2,6-trimethylbenzenesulfonamide]
inhibition at 10 µM [1]: 105% | inhibition at 10 µM [2]: 101%

COc1cc(C)c(S(=O)(=O)N(C)CCOCC(=O)N2CCC(c3cccc(F)c3)(N3CCN(C)CC3)CC2)c(C)c1 [Compound 44, N-(2-(2-(4-(3-fluorophenyl)-4-(4-methylpiperazin-1-yl)piperidin-1-yl)-2-oxoethoxy)ethyl)-4-methoxy-N,2,6-trimethylbenzenesulfonamide]
hB1R [10 μM] % inhibition ([1]; 10 μM test substance): 102% | rB1R [10 μM] % inhibition ([2]; 10 μM test substance): 101%

COc1cc(C)c(S(=O)(=O)N(C)CCOCC(=O)N(C)CC2CCC(Cc3ccccc3)(N3CCCC3)CC2)c(C)c1 (centres unmarked) [Compound 45, N-((4-benzyl-4-(pyrrolidin-1-yl)cyclohexyl)methyl)-2-(2-(4-methoxy-N,2,6-trimethylphenylsulfonamido)ethoxy)-N-methylacetamide]
inhibition at 10 µM [1]: 104% | inhibition at 10 µM [2]: 100%

COc1cc(C)c(S(=O)(=O)N2CCCCC2COCC(=O)N(C)CCC2CCC(CCc3ccccc3)(N3CCCC3)CC2)c(C)c1 (centres unmarked) [Compound 46, 2-((1-(4-methoxy-2,6-dimethylphenylsulfonyl)piperidin-2-yl)methoxy)-N-methyl-N-(2-(4-phenethyl-4-(pyrrolidin-1-yl)cyclohexyl)ethyl)acetamide]
inhibition at 10 µM [1]: 104% | inhibition at 10 µM [2]: 100%

COc1cc(C)c(S(=O)(=O)N(C)CCOCC(=O)N(C)CC2CCC(CCc3ccccc3)(N3CCCC3)CC2)c(C)c1 (centres unmarked) [Compound 47, 2-(2-(4-methoxy-N,2,6-trimethylphenylsulfonamido)ethoxy)-N-methyl-N-((4-phenethyl-4-(pyrrolidin-1-yl)cyclohexyl)methyl)acetamide]
inhibition at 10 µM [1]: 102% | inhibition at 10 µM [2]: 100%

COc1cc(C)c(S(=O)(=O)N(C)CCOCC(=O)N2CCC(CCc3ccccc3)(N(C)C)CC2)c(C)c1 [Compound 48, N-(2-(2-(4-(dimethylamino)-4-phenethylpiperidin-1-yl)-2-oxoethoxy)ethyl)-4-methoxy-N,2,6-trimethylbenzenesulfonamide]
inhibition at 10 µM [1]: 102% | inhibition at 10 µM [2]: 100%

COc1cc(C)c(S(=O)(=O)N2CCCCC2COCC(=O)N2CCC(c3ccccc3)(N3CCN(C)CC3)CC2)c(C)c1 (centres unmarked) [Compound 49, 2-((1-(4-methoxy-2,6-dimethylphenylsulfonyl)piperidin-2-yl)methoxy)-1-(4-(4-methylpiperazin-1-yl)-4-phenylpiperidin-1-yl)ethanone]
inhibition at 10 µM [1]: 103% | inhibition at 10 µM [2]: 100%

COc1cc(C)c(S(=O)(=O)N2CCCCC2COCC(=O)N2CCC(CCc3ccccc3)(N(C)C)CC2)c(C)c1 (centres unmarked) [Compound 50, 1-(4-(dimethylamino)-4-phenethylpiperidin-1-yl)-2-((1-(4-methoxy-2,6-dimethylphenylsulfonyl)piperidin-2-yl)methoxy)ethanone]
inhibition at 10 µM [1]: 102% | inhibition at 10 µM [2]: 100%

COc1cc(C)c(S(=O)(=O)N2CCCCC2COCC(=O)N(C)CC2CCC(CCc3ccccc3)(N3CCCC3)CC2)c(C)c1 (centres unmarked) [Compound 51, 2-((1-(4-methoxy-2,6-dimethylphenylsulfonyl)piperidin-2-yl)methoxy)-N-methyl-N-((4-phenethyl-4-(pyrrolidin-1-yl)cyclohexyl)methyl)acetamide]
inhibition at 10 µM [1]: 102% | inhibition at 10 µM [2]: 100%

COc1cc(C)c(S(=O)(=O)N(C)CCOCC(=O)N(C)CCC2CCC(CCc3ccccc3)(N(C)C)CC2)c(C)c1 (centres unmarked) [Compound 52, N-(2-(4-(dimethylamino)-4-phenethylcyclohexyl)ethyl)-2-(2-(4-methoxy-N,2,6-trimethylphenylsulfonamido)ethoxy)-N-methylacetamide]
inhibition at 10 µM [1]: 104% | inhibition at 10 µM [2]: 100%

COc1cc(C)c(S(=O)(=O)N(C)CCOCC(=O)N(C)CCC2CCC(Cc3ccccc3)(N(C)C)CC2)c(C)c1 (centres unmarked) [Compound 53, N-(2-(4-benzyl-4-(dimethylamino)cyclohexyl)ethyl)-2-(2-(4-methoxy-N,2,6-trimethylphenylsulfonamido)ethoxy)-N-methylacetamide]
inhibition at 10 µM [1]: 103% | inhibition at 10 µM [2]: 100%

COc1cc(C)c(S(=O)(=O)N(C)CCOCC(=O)N2CCC(c3ccccc3)(N(C)C)CC2)c(C)c1 [Compound 54, N-(2-(2-(4-(dimethylamino)-4-phenylpiperidin-1-yl)-2-oxoethoxy)ethyl)-4-methoxy-N,2,6-trimethylbenzenesulfonamide]
inhibition at 10 µM [1]: 103% | inhibition at 10 µM [2]: 100%

CN1CCN(C2(CCc3ccccc3)CCN(C(=O)CC(NS(=O)(=O)c3ccc4ccccc4c3)c3ccccc3)CC2)CC1 (centres unmarked) [Compound 55, N-(3-(4-(4-methylpiperazin-1-yl)-4-phenethylpiperidin-1-yl)-3-oxo-1-phenylpropyl)naphthalene-2-sulfonamide]
inhibition at 10 µM [1]: 99% | inhibition at 10 µM [2]: 100%

CN(CCC1CCC(Cc2ccccc2)(N2CCCC2)CC1)C(=O)CC(NS(=O)(=O)c1ccc2ccccc2c1)c1ccccc1 (centres unmarked) [Compound 56, N-(2-(4-benzyl-4-(pyrrolidin-1-yl)cyclohexyl)ethyl)-N-methyl-3-(naphthalene-2-sulfonamido)-3-phenylpropanamide]
inhibition at 10 µM [1]: 101% | inhibition at 10 µM [2]: 100%

COc1cc(C)c(S(=O)(=O)N2CCCCC2COCC(=O)N2CCC(Cc3ccccc3)(N3CCN(C)CC3)CC2)c(C)c1 (centres unmarked) [Compound 57, 1-(4-benzyl-4-(4-methylpiperazin-1-yl)piperidin-1-yl)-2-((1-(4-methoxy-2,6-dimethylphenylsulfonyl)piperidin-2-yl)methoxy)ethanone]
inhibition at 10 µM [1]: 100% | inhibition at 10 µM [2]: 100%

COc1cc(C)c(S(=O)(=O)N(C)CCOCC(=O)N(C)CCC2CCC(CCc3ccccc3)(N3CCCC3)CC2)c(C)c1 (centres unmarked) [Compound 58, 2-(2-(4-methoxy-N,2,6-trimethylphenylsulfonamido)ethoxy)-N-methyl-N-(2-(4-phenethyl-4-(pyrrolidin-1-yl)cyclohexyl)ethyl)acetamide]
inhibition at 10 µM [1]: 103% | inhibition at 10 µM [2]: 100%

COc1cc(C)c(S(=O)(=O)N2CCCCC2COCC(=O)N(C)CCCC2CCC(CCc3ccccc3)(N3CCCC3)CC2)c(C)c1 (centres unmarked) [Compound 59, 2-((1-(4-methoxy-2,6-dimethylphenylsulfonyl)piperidin-2-yl)methoxy)-N-methyl-N-(3-(4-phenethyl-4-(pyrrolidin-1-yl)cyclohexyl)propyl)acetamide]
inhibition at 10 µM [1]: 101% | inhibition at 10 µM [2]: 100%

From patent publication US20090253669A1, “Substituted Sulfonamide Compounds” (GRUENENTHAL GmbH, priority 2008, published 2009)
